Results reported in US7390826B2, “Inhibitors of animal cell motility and growth” (The Board of Trustees of The University of Illinois, priority 2002, dated 2008).
Read-outs that look alike come from different tables or passages of the source.

Columns and labels:
Xenopus laevis embryos = test: frog embryo morphogenesis assay (scoring of developmental defects); format: in vivo; conditions: Xenopus laevis, read-out: EC50 with respect to the defective phenotype at 72 hr following treatment
Description: In order to identify compounds that specifically perturb morphogenesis in the frog embryo, a suitable method for scoring embryos by characteristic defects was developed. A useful starting point was the “dorso-anterior index” (DAI). The DAI originally was constructed by adding new morphological characteristics to the older “index of axis deficiency” (S. R. Scharf et al., Dev. Biol., 99, 75-87 (1983)). The DAI is a scale of dorsoanterior development wherein embryos are assigned a score based on degree of dorsoanterior phenotype (K. R. Kao et al., Dev. Biol., 127, 64-77 (1988)). The scale encompasses a score of 0 (for the most axis-deficient or ventralized embryos) to 10 (for embryos with the most enhanced dorsoanterior structures), with a score of 5 signifying a normal embryo.
Because the DAI focuses only on dorsoanterior phenotypes, other categories were added to describe possible defects more comprehensively, with an emphasis on characteristics that are easily and unambiguously recognized in intact embryos, and that are diagnostic of possible effects on morphogenesis during gastrulation and neurulation. The most useful and readily scored categories that covered the most frequent deficiencies were: reduced anterior structures and microcephaly, delayed appearance or absence of eye pigmentation, overall shortness along the anteroposterior axis, bent axis, bent tail only, reduced posterior structures/tail, malformed or reduced fins, delayed or failed neural tube closure (neural fold fusion), abnormal pigmentation pattern, ventral swelling (edema), and delayed or abnormal visceral organogenesis and yolk resorption. In addition, blastopore closure, an earlier process that marks the completion of gastrulation, was observed.
In these tests, test compounds were added individually to wells each containing 4-8 embryos in 12-well plates. Embryos at stage 8.5-9, according to the classification of Nieuwkoop and Faber (P. I. Nieuwkoop et al., Normal Table of Xenopus laevis (Daudin). Amsterdam: North-Holland Publ.) (1967)), were used because these are late blastula stages before gastrulation begins at stage 10, which allowed focusing primarily on compounds that affect morphogenetic events in gastrulation and neurulation. These embryos, therefore, have undergone a midblastula transition at stage 8 (cleavage division 12) when zygotic transcription begins (J. Newport et al., Cell, 30, 675-686 (1982); J. Newport et al., Cell, 30, 687-696 (1982)) but have not yet started the morphogenetic movements of gastrulation.
Standard procedures were used in the care of animals, gamete preparation, fertilization of oocytes, and culture of embryos (B. K. Kay et al., Methods in Cell Biology, Volumn 36 (San Diego: Academic Press, Inc.) (1991)). In order to stimulate ovulation, female frogs were injected with 500 units of human chorionic gonadotropin (HCG). Eggs were squeezed from female frogs 12 hours later. Testes were removed from euthanized male frogs that had been primed with 50 units of HCG 4-6 hours earlier. The testes were stored at 4° C. in single strength Marc's Modified Ringer's solution with 50 μg/ml gentamycin and used for no more than 10 days. Small pieces of testes were macerated and spread over eggs for in vitro fertilization in Petri dishes. Fertilized eggs were placed in one-tenth strength Modified Barth's Saline (MBS) with 50 μg/ml gentamycin at constant temperature (19° C.) in a temperature-controlled incubator and development allowed to proceed under these conditions. Embryos were dejellied by briefly swirling them in a solution of 2% (w/v) L-cysteine, pH 8.0. The embryos then were rinsed extensively with one-tenth strength MBS to wash out the cysteine. Experiments were started within an hour of dejellying the embryos.
Experiments were carried out in 12-well flat-bottom polystyrene plates with 4-8 embryos per well in 1.0 ml of one-tenth strength MBS with 50 μg/ml gentamycin at 19° C. […]

[1] = test system: Madin-Darby canine kidney (MDCK) cell monolayers; test: scrape-wound closure assay in MDCK cell monolayers; format: cell-based; conditions: even at the highest concentration tested (500 μM)
Description: A method of determining the ability of a compound to inhibit or accelerate cell motility is a scrape-wound closure assay using cultured mammalian epithelial cell monolayers. Mechanical scraping of the epithelial monolayer induces cell sheet migration into the resulting gap, a phenomenon characteristic of wounded epithelia and mechanistically related to normal epithelial movements during embryonic morphogenesis (A. Jacinto et al., Nat. Cell Biol, 3, E117 (2001)). Epithelial cell sheet migration in this method proceeds by a Rac- and phosphoinositide-dependent cell crawling mechanism resembling the motility of other animal cells that move as individuals rather than as cell sheets (G. Fenteany et al., Curr. Biol., 10, 831 (2000)).
Wound closure in MDCK cell monolayers primarily involves cell spreading and motility rather than proliferation based on observations and treatments that block cell growth without inhibiting closure. However, after closure is complete and the gap is covered, cell division is observed in the former wound area, presumably as part of a homeostatic mechanism to regain the original cell density (M. F. Olson et al., Science, 269, 1270 (1995)). Wound closure involves Rac- and phosphoinositide-dependent actin polymerization and protrusion-driven cell crawling behavior, where force generation for movement is distributed from the wound margin to several rows of cells behind the margin. Accordingly, this method is excellent for determining whether a compound affects cell motility.
Cell culture conditions: Madin-Darby canine kidney (MDCK) cells (American Type Culture Collection cell line CCL-34) were cultured in Minimum Essential Medium (with Earle's balanced salts, non-essential amino acids, L-glutamine and sodium pyruvate) supplemented with 10% newborn calf serum at 37° C. and 5% carbon dioxide (CO2). Main cultures were grown in either […] tissue culture flasks with medium changes every two days. When cultures were about 75% confluent, cells were passaged by rinsing twice with single strength phosphate buffered saline (PBS) and treating with a solution of 0.05% (w/v) trypsin/0.02% (w/v) ethylenediaminetetraacetic acid (EDTA) in PBS to detach cells from the flasks. After cells were detached, an equal volume of serum-containing medium was added to inhibit the trypsin and cell density was determined using a hemacytometer. Cells were replated following dilution in fresh medium on new tissue culture flasks for continued culture and multiwell tissue culture plates for experiments. No culture used exceeded 15 passages. Experimental cultures were grown in 12-, 24-, 48-, or 96-well tissue culture plates with medium changes every two days.
Wound closure assay and compound screening: MDCK cells were plated on multiwell tissue culture plates and cultured at 37° C. and 5% CO2 with medium changes every two days until confluent. When the cultures reached confluence, medium was changed again and all experimental treatments were begun a day later. Compounds were solubilized in dimethyl sulfoxide (DMSO) and added with fresh-medium to cell cultures at initial screening concentrations of 10 and 100 μM. Controls consisted of parallel wells to-which DMSO solvent carrier alone was added at the same concentration as that added with experimental treatments (not exceeding 0.1% (v/v)). DMSO alone at this concentration had no detectable effect on the cells. Monolayers were scraped 30 min later with a micropipette and ultramicro tips, allowing small wounds of consistent size to be generated. Progress of wound closure was examined at set time intervals following wounding by microscope, and inhibitory or acceleratory effects on wound closure relative to parallel controls noted. […] Digital images of the wounded monolayers were taken every 2 hours for 18 hours, and then at 30, 36, 54, 60, and 72 hours following wounding. The number of lamellipodia at the wound margin was also counted at these times. […]

MDCK cell wounds = test: lamellipodial density at the margin of MDCK cell wounds; format: cell-based, canine; set-up: key to Lamellipodial Density: lamellipodial protrusions per unit margin perimeter length; conditions: 50 μM, mean ± SEM, * p<0.05 vs control
Procedure: Lamellipodial protrusion is known to drive most forms of animal cell crawling. At any given time in the migrating cell sheet, some cells are extending lamellipodia at the margin while others are not. […] Therefore, inhibition of cell sheet migration by compound 1 at least in part is attributed to reduced formation of lamellipodia at the would margin.
Lamellipodial density at the margin of MDCK cell wounds was determined under the following treatment conditions: 0.1% DMSO (control, n=25 wounded monolayers), 50 μM compound 1 (n=19), or 50 μM compound 11 (n=10). Lamellipodial density is the number of lamellipodial protrusions detected at the wound margin until closure for the times indicated divided by margin perimeter length. Values are mean±SEM.
Wound closure assay and compound screening: MDCK cells were plated on multiwell tissue culture plates and cultured at 37° C. and 5% CO2 with medium changes every two days until confluent. When the cultures reached confluence, medium was changed again and all experimental treatments were begun a day later. Compounds were solubilized in dimethyl sulfoxide (DMSO) and added with fresh-medium to cell cultures at initial screening concentrations of 10 and 100 μM. Controls consisted of parallel wells to-which DMSO solvent carrier alone was added at the same concentration as that added with experimental treatments (not exceeding 0.1% (v/v)). DMSO alone at this concentration had no detectable effect on the cells. Monolayers were scraped 30 min later with a micropipette and ultramicro tips, allowing small wounds of consistent size to be generated. Progress of wound closure was examined at set time intervals following wounding by microscope, and inhibitory or acceleratory effects on wound closure relative to parallel controls noted. […] Digital images of the wounded monolayers were taken every 2 hours for 18 hours, and then at 30, 36, 54, 60, and 72 hours following wounding. The number of lamellipodia at the wound margin was also counted at these times.

MDCK cells = test: MDCK cell proliferation; format: cell-based, canine
Procedure: In FIG. 2A, cells were plated at low cell density (1×10^4 cells/mL) and allowed to attach and begin to grow for 48 hours prior to the start of experiment. The treatments were 0.1% DMSO (control, n=9 cultures), 50 μM compound 1 (n=8), or 50 μM compound 11 (n=7). Reported values are mean with SEM of the percent increase in cell number from 0 to 48 hours after addition of compound 1.
The values were mean with SEM of the percent increase in cell number another 48 hours after replacement of medium containing 50 μM compound 1 (n=8 cultures) or 0.1% DMSO (n=9) with fresh medium containing 0.1% DMSO.
MDCK cell proliferation: MDCK cells were plated on multiwell tissue culture plates at low density ([…]). Cells were allowed to attach and begin to grow for 48 hours before the start of the experiment. Fresh medium with or without compound was then added, and cells were incubated for 48 hours. At both 0 and 48 hours, some of the parallel wells for control and compound treatments were washed twice with PBS and treated with trypsin/EDTA solution to detach the cells. An equal volume of medium was added, cells were collected and counted using a hemacytometer. For reversibility, some of the parallel cultures for both control and compound treatments were grown another 48 hours after washing twice with PBS and replacing medium with fresh compound-free medium. At both the time of washing out and 48 hours later, some of the parallel wells for control and compound treatments were washed twice with PBS, detached from the plates with trypsin/EDTA solution, and the number of cells was counted.

[2] = solubility in carrier solvent; format: physicochemical
Procedure: Experiments were carried out in 12-well flat-bottom polystyrene plates with 4-8 embryos per well in 1.0 ml of one-tenth strength MBS with 50 μg/ml gentamycin at 19° C. Staging of embryos was done according to the classification of Nieuwkoop and Faber. Embryos at stage 8.5-9 (late blastula stages prior to the debut of gastrulation at stage 10) or at the 2-cell stage (after the first cleavage division, Nieuwkoop and Faber stage 2), as indicated in the figures, were treated with a test compound or dimethylsulfoxide (DMSO) carrier solvent and maintained at 19° C. […] DMSO alone at this concentration had no detectable effect on the embryos. […] As with 0.1% DMSO, this concentration of DMF had no effect on development of the frog embryos. Each experiment was conducted in triplicate on at least three separate occasions for a total of 9 or more wells per treatment. Embryos were observed using a stereomicroscope and scored for defects or delayed development at set times (0, 3, 6, 9, 12, 24, 48, 72, and 96 hours) following treatment.

[3] = 72 hr after treatment, dose-response, 5 concentrations

Row | SMILES | EC50 (Xenopus laevis embryos; 72 h) [µM] | EC50 (Xenopus laevis embryos; [3]) [µM] | further results
1 | C/C=C/C(=O)N1CCOC1=O [Compound 6] | 39.1 | – | –
2 | CCCC(=O)N1C(=O)OC[C@@H]1Cc1ccccc1 [Compound 11] | – | – | bioactivity in wound closure assay [1]: no statistically significant bioactivity; Lamellipodial Density (MDCK cell wounds; 2 hours): 0.563 ± 0.148; Lamellipodial Density (MDCK cell wounds; 4 hours): 1.139 ± 0.270; Lamellipodial Density (MDCK cell wounds; 6 hours): 1.289 ± 0.276; Lamellipodial Density (MDCK cell wounds; 8 hours): 1.196 ± 0.312; Lamellipodial Density (MDCK cell wounds; 10 hours): 1.609 ± 0.357; Lamellipodial Density (MDCK cell wounds; 12 hours): 1.368 ± 0.309; inhibition of MDCK cell proliferation (percent increase in cell number) (MDCK cells; 50 μM, 0 to 48 hours): not; bioactivity in cell proliferation assay (MDCK cells; even at the highest concentration tested (500 μM)): no statistically significant bioactivity
3 | CC/C=C/C(=O)N1C(=O)OC[C@@H]1Cc1ccccc1 [Compound 13] | – | 54.6 | –
4 | C/C=C/C(=O)N1C(=O)OC[C@@H]1C(C)C [Compound 15] | 25.9 | – | –
5 | C/C=C\C(=O)N1C(=O)OC[C@@H]1Cc1ccccc1 [Compound 17] | 19.1 | – | –
6 | O=C(/C=C/c1c(F)c(F)c(F)c(F)c1F)N1C(=O)OC[C@@H]1Cc1ccccc1 [Compound 22] | – | – | solubility in DMF versus DMSO [2]: more soluble in DMF
7 | CCCCC/C=C/C(=O)N1C(=O)OC[C@@H]1Cc1ccccc1 [Compound 23] | – | 58.1 | –
8 | C/C=C/C(=O)N1C(=O)O[C@@H](c2ccccc2)[C@@H]1C [Compound 25] | 13.9 | – | –
9 | C/C=C/C(=O)N1C(=O)O[C@H](c2ccccc2)[C@H]1C [Compound 26] | 12.7 | – | –
10 | C/C=C/C(=O)N1C(=O)OC[C@@H]1c1ccccc1 [Compound 30] | 10.1 | – | –
11 | CC#CC(=O)N1C(=O)OC[C@@H]1Cc1ccccc1 [Compound 31] | – | 5.9 | –
12 | O=C(/C=C/c1cccc(F)c1)N1C(=O)OC[C@@H]1Cc1ccccc1 [Compound 33] | – | 47.6 | –
13 | O=C(/C=C/c1ccc(O)cc1)N1C(=O)OC[C@@H]1Cc1ccccc1 [Compound 41] | – | 27.1 | solubility in DMF versus DMSO [2]: more soluble in DMF
14 | C/C=C/C(=O)N1C(=O)OC[C@H]1Cc1ccccc1 [Compound 45] | 8.9 | – | –
15 | C=CC(=O)N1C(=O)OC[C@@H]1Cc1ccccc1 [Compound 52] | 6.1 | – | –
16 | O=C(/C=C/c1cccc(C(F)(F)F)c1)N1C(=O)OC[C@@H]1Cc1ccccc1 [Compound 54] | – | 30.4 | –
